Laboratory results reported in US20210205329A1 (The University of North Carolina at Chapel Hill, priority 2018, published 2021).
Like-named read-outs stand apart in the source and are kept apart here.

How the values were obtained:
[1] = system: LPS-activated TLR4 signal; assay: LPS-activated TLR4 signaling in RAW264.7 cells (immunoblotting); format: cell-based, mouse; conditions: for effect on TLR4 expression: 0.5 μM or 1 μM, LPS-treated RAW264.7, 24 hrs; for inhibition of LPS-increased pTAK1, TRAF6, NFκB p50, phospho-NF-κB p65, pCREB, HMGB1, MCP-1 and TNFα (overall): 0.5-1.0 μM; for inhibition of LPS-increased pTAK1, TRAF6, NFκB p50, phospho-NF-κB p65, pCREB, HMGB1, MCP-1 and TNFα (overall) / inhibition at 0.5 µM / inhibition at 1 µM / inhibition of LPS-induced NFκB p50 / inhibition of the effect of LPS activation of TLR4 on MCP-1 / inhibition of the effect of LPS activation on TRAF6 / inhibition of the effect of LPS activation on pTAK1 / inhibition of the effect of LPS on HMGB1 / inhibition of the effect of LPS on TNFα / inhibition of the effect of LPS on pCREB / inhibition of the effect of LPS on phospho-NF-κB p65: RAW264.7; for inhibition at 0.5 µM / inhibition at 1 µM: Mus musculus; for inhibition at 0.5 µM / inhibition at 1 µM / inhibition of LPS-induced NFκB p50 / inhibition of the effect of LPS activation of TLR4 on MCP-1 / inhibition of the effect of LPS activation on TRAF6 / inhibition of the effect of LPS activation on pTAK1 / inhibition of the effect of LPS on HMGB1 / inhibition of the effect of LPS on TNFα / inhibition of the effect of LPS on pCREB / inhibition of the effect of LPS on phospho-NF-κB p65: LPS 1 μg/ml, 24 hrs
Experimental: Cells and reagents. Mouse monocyte macrophage ceils (RAW264.7) that innately express the TLR4 receptor were obtained from American Type Culture Collection (Manassas, Va., USA). The cells were grown in Dulbecco's modified Eagle's medium (DMEM) (Gibco; Gaithersburg, Md., USA) supplemented with 10% fetal bovine serum (FBS, Gemini, West Sacramento, Calif., USA), 1% penicillin/streptomycin 100× (Gibco) at 37° C. in a 5% CO2 humidified atmosphere. The TLR4-specific ligand IPS was purchased from Sigma-Aldrich (St. Louis, Mo., USA) (Cat. #L3024) and added to the cultures (1 μg/ml) 24 hrs before cell collection.
Immunoblotting. The assay used for RAW264.7 cell lysates and co-immunoprecipitation was as previously described (Aurelian et al, 2016; June et al, 2015; Liu et al, 2011). RAW246.7 cells grown on T-75 flasks (n=5 flasks/group) were lysed with radioimmunoprecipitation (RIPA) buffer [20 mM Tris-HCl (pH 7.4), […], 1% Nonidet P-40 (Sigma, St. Louis, Mo., USA), 0.1% SDS (sodium dodecyl sulfate), 0.5% sodium deoxycholate] supplemented with protease and phosphatase inhibitor cocktails (Sigma). The total protein was determined by the bicinchoninic acid assay (BCA, Thermo Fisher Scientific, Waltham, Mass., USA, Cat. #23228 and Cat. #1859078). The proteins (100 μg/lane) were resolved by SDS-polyacrylamide gel electrophoresis using freshly prepared 16×18 cm gels and transferred to polyvinylidene fluoride membranes (PVDF, Bio-Rad, Cat. #162-0177). Blots were blocked with 5% Blotting-Grade Blocker (Bio-Rad, Cat. #1706404; for non-phosphorylated primary antibodies) or 5% BSA (for phosphorylated primary antibodies) for 2 hrs at room temperature (RT) and exposed to primary antibody overnight (4° C.), followed by horseradish peroxidase-labeled secondary antibodies for 1 h (room temp), immunoreactive bands were visualized with the Plus-ECL kit reagents (Perkin Elmer, Waltham, Mass., USA, Cat. #NEL105001EA) followed by exposure to high-performance chemiluminescence film (Hyperfilm ECL; Amersham). Quantitation was by densitometric scanning with a Bio-Rad GS-700 imaging densitometer. Blots were stripped and re-probed with different primary antibodies 3-5 times. Each densitometric measurement was divided by the corresponding β-Actin densitometric measurement and the results [n=5/group] are expressed as the mean β-Actin-adjusted densitometric units±SEM.
To examine whether the neurosteroids inhibit the LPS-activated TLR4 signal, RAW264.7 cells were treated with IPS (1 μg/mi; 24 hrs) in the absence or presence of 3α,5α-THP (0.5 μM, 1 μM) or pregnenolone (0.5 μM, 1 μM), and ceil extracts were assayed for expression of MyD88-dependent pathway members, by immunoblotting with antibodies to pTAK1, monocyte chemotactic protein (MCP-1), TRAF6, TLR4, and transcription factor NFκB p50 (Chattopadhyay S, et al. (2014). Cytokine Growth Factor Rev 25(5): 533-541; Irie T, et al. (2000). FEBS Lett 467(2-3): […]; Lu Y C, et al. (2008). Cytokine 42(2): 145-151).
Because the neurosteroids had relatively little effect on NFκB p50, the possibility that inhibition of other transcription factors and proinflammatory responses may be involved was considered. RAW246.7 ceils were treated as described above and protein extracts were immunoblotted with antibodies to phospho-NF-κB p65, pCREB, the proinflammatory cytokine tumor necrosis factor alpha (TNFα), and high mobility group box-1 (HMGB1), a highly conserved non-histone chromosomal protein, the translocation of which from the intra- to extra-cellular environment is a critical event in inflammatory responses. Indeed, HMGB1 is currently recognized as a cytokine secreted from activated macrophages and other inflammatory cells during the innate immune response and if is believed to function as a TLR4 ligand. […]

RAW264.7 cells = assay: Non-activated RAW264.7 cells in the absence of LPS (immunoblotting); format: cell-based, mouse; conditions: 1 μM, 24 hrs
Experimental: FIGS. 3A and 3B depict neurosteroids targeting the activated TLR4 signal by inhibiting TLR4/MD-2 binding. (FIG. 3A) 3α,5α-THP and pregnenolone specifically target the activated TLR4 signal. RAW264.7 cells untreated (CTL) or treated with 3α,5α-THP (THP; 1 μM) or pregnenolone (Preg; 1 μM) were harvested after 24 hrs. […] (FIG. 3B) Neurosteroids inhibit TLR4 signal activation in RAW264.7 ceils by blocking TLR4/MD-2 binding. RAW246.7 cells were treated with IPS (1 μg/ml) without or with 3α,5α-THP (THP; 1.0 μM) or pregnenolone (Preg; 1.0 μM) and protein extracts collected at 24 hrs post-treatment were immunoprecipitated (IP) with antibody to TLR4 or TLR2. The precipitates were immunoblotted (IB) with MD-2 antibody. Normal IgG was used as control. MD-2 co-precipitated with TLR4, but not normal IgG. […] HMGB1 co-precipitated with both TLR4 and TLR2 and its levels were not altered by the neurosteroids.
Immunoblotting. […] The total protein was determined by the bicinchoninic acid assay (BCA, Thermo Fisher Scientific, Waltham, Mass., USA, Cat. #23228 and Cat. #1859078). […] Quantitation was by densitometric scanning with a Bio-Rad GS-700 imaging densitometer. […] Each densitometric measurement was divided by the corresponding β-Actin densitometric measurement and the results [n=5/group] are expressed as the mean β-Actin-adjusted densitometric units±SEM. […]

## CC(=O)[C@H]1CC[C@H]2[C@@H]3CC[C@H]4C[C@H](O)CC[C@]4(C)[C@H]3CC[C@]12C [3α,5α-THP, (3α,5α)3-hydroxypregnan-20-one]
[1]
  effect on TLR4 expression: did not affect
  inhibition of LPS-increased pTAK1, TRAF6, NFκB p50, phospho-NF-κB p65, pCREB, HMGB1, MCP-1 and TNFα (overall): ~80%
[1]; 0.5 μM, read-out: inhibition of LPS-induced NFκB p50
  inhibition at 0.5 µM: 19.8 ± 7.9%
[1]; 0.5 μM, read-out: inhibition of the effect of LPS activation of TLR4 on MCP-1
  inhibition at 0.5 µM: 81.5 ± 3.8%
[1]; 0.5 μM, read-out: inhibition of the effect of LPS activation on TRAF6
  inhibition at 0.5 µM: 54.5 ± 5.5%
[1]; 0.5 μM, read-out: inhibition of the effect of LPS activation on pTAK1
  inhibition at 0.5 µM: 37.8 ± 7.7%
[1]; 0.5 μM, read-out: inhibition of the effect of LPS on HMGB1
  inhibition at 0.5 µM: 88.9 ± 11%
[1]; 0.5 μM, read-out: inhibition of the effect of LPS on TNFα
  inhibition at 0.5 µM: 77.8 ± 7.3%
[1]; 0.5 μM, read-out: inhibition of the effect of LPS on pCREB
  inhibition at 0.5 µM: 97.2 ± 1.9%
[1]; 0.5 μM, read-out: inhibition of the effect of LPS on phospho-NF-κB p65
  inhibition at 0.5 µM: 90.1 ± 8.5%
[1]; 1.0 μM, read-out: inhibition of LPS-induced NFκB p50
  inhibition at 1 µM: 38.3 ± 7.3%
[1]; 1.0 μM, read-out: inhibition of the effect of LPS activation of TLR4 on MCP-1
  inhibition at 1 µM: 85.2 ± 4.5%
[1]; 1.0 μM, read-out: inhibition of the effect of LPS activation on TRAF6
  inhibition at 1 µM: 55.3 ± 2.6%
[1]; 1.0 μM, read-out: inhibition of the effect of LPS activation on pTAK1
  inhibition at 1 µM: 71.7 ± 3.6%
[1]; 1.0 μM, read-out: inhibition of the effect of LPS on HMGB1
  inhibition at 1 µM: 58.6 ± 5.5%
[1]; 1.0 μM, read-out: inhibition of the effect of LPS on TNFα
  inhibition at 1 µM: 70.9 ± 3.5%
[1]; 1.0 μM, read-out: inhibition of the effect of LPS on pCREB
  inhibition at 1 µM: 94.8 ± 3.4%
[1]; 1.0 μM, read-out: inhibition of the effect of LPS on phospho-NF-κB p65
  inhibition at 1 µM: 88.9 ± 10.8%
RAW264.7 cells
  expression of pTAK1, TRAF6, and MCP1 in non-activated cells: failed to inhibit

## CC(=O)[C@H]1CC[C@H]2[C@@H]3CC=C4C[C@@H](O)CC[C@]4(C)[C@H]3CC[C@]12C [pregnenolone]
[1]
  effect on TLR4 expression: did not affect
  inhibition of LPS-increased pTAK1, TRAF6, NFκB p50, phospho-NF-κB p65, pCREB, HMGB1, MCP-1 and TNFα (overall): ~80%
[1]; 0.5 μM
  inhibition of LPS-induced NFκB p50: 25.3±7.4%
  inhibition of the effect of LPS activation of TLR4 on MCP-1: 77.3±7.3%
  inhibition of the effect of LPS activation on TRAF6: 73.7±1.3%
  inhibition of the effect of LPS activation on pTAK1: 76.2±2.0%
  inhibition of the effect of LPS on HMGB1: 52.0±9.8%
  inhibition of the effect of LPS on TNFα: 61.7±3.6%
  inhibition of the effect of LPS on pCREB: 84.8±9.9%
  inhibition of the effect of LPS on phospho-NF-κB p65: 86.7±7.3%
[1]; 1.0 μM
  inhibition of LPS-induced NFκB p50: 28.8±6.7%
  inhibition of the effect of LPS activation of TLR4 on MCP-1: 85.8±4.4%
  inhibition of the effect of LPS activation on TRAF6: 88.5±6.8%
  inhibition of the effect of LPS activation on pTAK1: 95.2±2.5%
  inhibition of the effect of LPS on HMGB1: 57.5±12.8%
  inhibition of the effect of LPS on TNFα: 65.1±7.7%
  inhibition of the effect of LPS on pCREB: 83.7±8.9%
  inhibition of the effect of LPS on phospho-NF-κB p65: 88.1±5.5%
RAW264.7 cells
  expression of pTAK1, TRAF6, and MCP1 in non-activated cells: failed to inhibit
